According to patent US11530218B2, “Spiro compounds as inhibitors of KRAS” (Incyte Corporation, priority 2020, dated 2022):

Columns and labels:
KRAS G12C = KRAS G12C (Homo sapiens, UniProt P01116, G12C); assay: KRAS G12C GDP-GTP exchange assay (bodipy-GDP/GppNHp, SOS1); format: biochemical; conditions: bodipy-loaded KRAS G12C 2.5 nM, 2 hours pre-incubation with inhibitor, 2 hours exchange; read-out: G12C_exchange (KRAS_G12C exchange assay IC50)
Experimental: (§1) The inhibitor potency of the exemplified compounds was determined in a fluorescence based guanine nucleotide exchange assay, which measures the exchange of bodipy-GDP (fluorescently labeled GDP) for GppNHp (Non-hydrolyzable GTP analog) to generate the active state of KRAS in the presence of SOS1 (guanine nucleotide exchange factor). Inhibitors were serially diluted in DMSO and a volume of 0.1 μL was transferred to the wells of a black low volume 384-well plate. 5 μL/well volume of bodipy-loaded KRAS G12C diluted to 5 nM in assay buffer (25 mM Hepes pH 7.5, 50 mM NaCl, 10 mM MgCl2 and 0.01% Brij-35) was added to the plate and pre-incubated with inhibitor for 2 hours at ambient temperature. Appropriate controls (enzyme with no inhibitor or with a G12C inhibitor (AMG-510)) were included on the plate. The exchange was initiated by the addition of a 5 μL/well volume containing 1 mM GppNHp and 300 nM SOS1 in assay buffer. The 10 μL/well reaction concentration of the bodipy-loaded KRAS G12C, GppNHp, and SOS1 were 2.5 nM, 500 uM, and 150 nM, respectively. The reaction plates were incubated at ambient temperature for 2 hours, a time estimated for complete GDP-GTP exchange in the absence of inhibitor. For the KRAS G12D and G12V mutants, similar guanine nucleotide exchange assays were used with 2.5 nM as final concentration for the bodipy loaded KRAS proteins and with 4 hours and 3 hours incubation after adding GppNHp-SOS1 mixture for G12D and G12V respectively. A cyclic peptide described to selectively bind G12D mutant (Sakamoto et al., BBRC 484.3 (2017), 605-611) or internal compounds with confirmed binding were used as positive controls in the assay plates. Fluorescence intensities were measured on a PheraStar plate reader instrument (BMG Labtech) with excitation at 485 nm and emission at 520 nm.
(§2) Either GraphPad prism or XLfit was used to analyze the data. The IC50 values were derived by fitting the data to a four parameter logistic equation producing a sigmoidal dose-response curve with a variable Hill coefficient. Prism equation: Y=Bottom+(Top−Bottom)/(1+10^((Log IC50−X)*Hill slope)); XLfit equation: Y=(A+((B−A)/(1+((X/C)^D)))) where X is the logarithm of inhibitor concentration and Y is the response.

KRAS G12D = KRAS G12D (Homo sapiens, UniProt P01116, G12D); assay: KRAS G12D GDP-GTP exchange assay (bodipy-GDP/GppNHp, SOS1); format: biochemical; conditions: bodipy loaded KRAS G12D 2.5 nM, 4 hours incubation after GppNHp-SOS1; read-out: G12D_exchange (KRAS_G12D exchange assay IC50)
Experimental: as §1, §2

[1] = test system: KRAS G12D (A427, HPAF-II cells); assay: KRAS_G12D cellular pERK HTRF assay; format: cell-based; conditions: cells incubated with compound 2 hours; read-out: G12D_pERK (KRAS_G12D pERK assay IC50)
Experimental: (§3) MIA PaCa-2 (KRAS G12C; ATCC® CRL-1420), A427 (KRAS G12D; ATCC® HTB53), HPAF-II (KRAS G12D; ATCC® CRL-1997) and NCI-H838 (KRAS WT; ATCC® CRL-5844) cells are purchased from ATCC and maintained in RPMI 1640 media supplemented with 10% FBS (Gibco/Life Technologies). The cells are plated at 5000 cells per well (8 uL) into Greiner 384-well low volume, flat-bottom, tissue culture treated white plates and incubated overnight at 37° C., 5% CO2. The next morning, test compound stock solutions are diluted in media at 3x the final concentration, and 4 uL are added to the cells. The plate is mixed by gentle rotation for 30 seconds (250 rpm) at room temperature. The cells are incubated with the KRAS G12C and G12D compounds for 4 hours or 2 hours respectively at 37° C., 5% CO2.
(§4) 4 uL of 4× lysis buffer with blocking reagent (1:25) (Cisbio) are added to each well and plates are rotated gently (300 rpm) for 30 minutes at room temperature. 4 uL per well of Cisbio anti Phospho-ERK 1/2 d2 is mixed with anti Phospho-ERK 1/2 Cryptate (1:1) are added to each well, mixed by rotation and incubated overnight in the dark at room temperature. Plates are read on the Pherastar plate reader at 665 nm and 620 nm wavelengths. IC50 determination is performed by fitting the curve of inhibitor percent inhibition versus the log of the inhibitor concentration using the GraphPad Prism 7 software.

[2] = test system: KRAS G12C (MIA PaCa-2 cells); assay: KRAS_G12C cellular pERK HTRF assay; format: cell-based, human; parameters: G12C_pERK (KRAS_G12C pERK assay IC50): scale not given here; conditions: cells incubated with compound 4 hours
Experimental: as §3, §4

Chain of KRAS G12C (P01116 1-188 isoform P01116-2 G12C): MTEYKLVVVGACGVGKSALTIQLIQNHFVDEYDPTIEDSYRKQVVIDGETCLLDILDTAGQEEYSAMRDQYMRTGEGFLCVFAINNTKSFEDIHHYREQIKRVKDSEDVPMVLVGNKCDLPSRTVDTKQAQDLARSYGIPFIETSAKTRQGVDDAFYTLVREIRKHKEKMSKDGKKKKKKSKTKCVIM
Chain of KRAS G12D (P01116 1-188 isoform P01116-2 G12D): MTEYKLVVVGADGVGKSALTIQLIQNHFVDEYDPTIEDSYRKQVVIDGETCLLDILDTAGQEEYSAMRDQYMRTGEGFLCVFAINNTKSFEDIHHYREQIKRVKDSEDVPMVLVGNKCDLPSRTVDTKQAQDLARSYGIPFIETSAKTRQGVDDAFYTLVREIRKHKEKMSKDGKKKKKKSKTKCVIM

Work on `C=CC(=O)N1CCC2(CC1)CC(=O)c1cnc3c(F)c(-c4cc(O)cc5ccccc45)c(Cl)cc3c1O2` [Example 17, 1-Acryloyl-9′-chloro-7′-fluoro-8′-(3-hydroxynaphthalen-1-yl)spiro[piperidine-4,2′-pyrano[3,2-c]quinolin]-4′(3′H)-one] yielded an IC50 (KRAS G12C) of 1 to 5 µM.
Molecule `C=CC(=O)N1CCC2(CC1)Nc1c(cnc3c(F)c(-c4cccc5[nH]nc(C)c45)c(Cl)cc13)NC2=O` [Example 3, 1-Acryloyl-9′-chloro-7′-fluoro-8′-(3-methyl-1H-indazol-4-yl)-1′,4′-dihydro-3′H-spiro[piperidine-4,2′-pyrazino[2,3-c]quinolin]-3′-one] has an IC50 (KRAS G12C) of 1 to 5 µM.
For `CC(C)CCN1C(=O)C2(CCCNC2)c2c1c(OC[C@@H]1CCCN1C)nc1c(F)c(-c3cc(O)cc4ccccc34)c(CCCC#N)cc21` (single isomer, unassigned) [Example 35a], the IC50 (KRAS G12D) was no more than 0.1 µM and the IC50 [1] was 5 to 50 µM.
`C=CC(=O)N1CCCC2(C1)C(=O)Nc1c(OC[C@@H]3CCCN3C)nc3c(F)c(-c4cc(O)cc5ccccc45)c(Cl)cc3c12` (mixture of isomers) [Example 15, 1-Acryloyl-8′-chloro-6′-fluoro-7′-(3-hydroxynaphthalen-1-yl)-4′-(((S)-1-methylpyrrolidin-2-yl)methoxy)spiro[piperidine-3,1′-pyrrolo[2,3-c]quinolin]-2′(3′H)-one] showed an IC50 (KRAS G12C) of 1 to 5 µM.
`C=CC(=O)N1CCC2(CC1)Nc1c(c(OC[C@@H]3CCCN3C)nc3c(F)c(-c4c(O)cccc4F)c(Cl)cc13)NC2=O` [Example 10, 1-Acryloyl-9′-chloro-7′-fluoro-8′-(2-fluoro-6-hydroxyphenyl)-5′-(((S)-1-methylpyrrolidin-2-yl)methoxy)-1′,4′-dihydro-3′H-spiro[piperidine-4,2′-pyrazino[2,3-c]quinolin]-3′-one] gave an IC50 (KRAS G12C) of no more than 0.1 µM and an IC50 ([2]; Homo sapiens, MIA PaCa-2, read-out: G12C_pERK (KRAS_G12C pERK assay IC50)) of 1 to 5 µM.
With `C=CC(=O)N1CCC2(CC1)C(=O)Nc1c(OC[C@@H]3CCCN3C)nc3c(F)c(-c4cc(O)cc5ccccc45)c(Cl)cc3c12` [Example 13, 1-Acryloyl-8′-chloro-6′-fluoro-7′-(3-hydroxynaphthalen-1-yl)-4′-(((S)-1-methylpyrrolidin-2-yl)methoxy)spiro[piperidine-4,1′-pyrrolo[2,3-c]quinolin]-2′(3′H)-one] the IC50 (KRAS G12C) was no more than 0.1 µM and the “G12C_pERK (KRAS_G12C pERK assay IC50)” value [2] was “††”.
In the case of `C=CC(=O)N1CCC2(CC1)Nc1c(c(OC[C@@H]3CCCN3C)nc3c(F)c(-c4cc(O)cc5ccccc45)c(Cl)cc13)NC2=O` [Example 11, 1-Acryloyl-9′-chloro-7′-fluoro-8′-(3-hydroxynaphthalen-1-yl)-5′-(((S)-1-methylpyrrolidin-2-yl)methoxy)-1′,4′-dihydro-3′H-spiro[piperidine-4,2′-pyrazino[2,3-c]quinolin]-3′-one], the IC50 (KRAS G12C) is reported as no more than 0.1 µM and the “G12C_pERK (KRAS_G12C pERK assay IC50)” value [2] is reported as “††”.
With `C=CC(=O)N1CCC2(CC1)Nc1c(cnc3c(F)c(-c4c(F)cccc4OC)c(Cl)cc13)NC2=O` [Example 5, 1-Acryloyl-9′-chloro-7′-fluoro-8′-(2-fluoro-6-methoxyphenyl)-1′,4′-dihydro-3′H-spiro[piperidine-4,2′-pyrazino[2,3-c]quinolin]-3′-one] the IC50 (KRAS G12C) was 1 to 5 µM.
Work on `C=CC(=O)N1CCC2(C1)Nc1c(cnc3c(F)c(-c4c(C)ccc5[nH]ncc45)c(Cl)cc13)NC2=O` (racemic) [Example 9, 1′-Acryloyl-9-chloro-7-fluoro-8-(5-methyl-1H-indazol-4-yl)-1,4-dihydro-3H-spiro[pyrazino[2,3-c]quinoline-2,3′-pyrrolidin]-3-one] yielded an IC50 (KRAS G12C) of 1 to 5 µM.
